According to patent US20180369244A1, “BTK Inhibitors to Treat Solid Tumors Through Modulation of the Tumor Microenvironment” (Acerta Pharma B.V., priority 2014, published 2018):

Assays:
[1] = tested on: human platelet-mediated thrombosis; conditions: mouse, in vivo
Experimental: Injury to the vessel wall of arterioles ([…] diameter) was performed using a pulsed nitrogen dye laser (440 nm, Photonic Instruments) applied through a 20× water-immersion Olympus objective (LUMPlanF1, 0.5 numerical aperature (NA)) of a Zeiss Axiotech vario microscope. […] The extent of thrombus formation was assessed for 2 minutes after injury and the area (μm^2) of coverage determined (Image IQ, Andor Technology).
The BTK inhibitor-treated human platelets were fluorescently labeled and infused continuously through a catheter inserted into the femoral artery.

B cell receptor = experiment: Whole blood B cell receptor signalling, CD69 on CD19+ B cells; format: cell-based; conditions: 2 h incubation, anti-human IgD 18 h
Experimental: Blood from four healthy donors was incubated for 2 hours with the compounds shown over a concentration range, and then stimulated with anti-human IgD [10 μg/mL] for 18 hours. The mean fluorescent intensity (MFI) of CD69 (and CD86, data not shown) on gated CD19+ B cells was measured by flow cytometry. MFI values were normalized so that 100% represents CD69 level in stimulated cells without inhibitor, while 0% represents the unstimulated/no drug condition. […]

CLL = conditions: cited from earlier work
[2] = tested on: GPVI platelet aggregation; experiment: GPVI platelet aggregation (convulxin-induced); format: cell-based, human
Experimental: GPVI platelet aggregation was measured for Formula (II) and Formula (X) (ibrutinib). Blood was obtained from untreated humans, and platelets were purified from […] by centrifugation. Cells were resuspended to a final concentration of […] in buffer containing 145 mmol/L NaCl, 10 mmol/L HEPES, 0.5 mmol/L Na2HPO4, 5 mmol/L KCl, 2 mmol/L MgCl2, 1 mmol/L CaCl2, and 0.1% glucose, at pH 7.4. Stock solutions of Convulxin (CVX) GPVI were prepared on the day of experimentation and added to platelet suspensions 5 minutes (37° C., 1200 rpm) before the induction of aggregation. Aggregation was assessed with a Chronolog Lumi-Aggregometer (model 540 VS; Chronolog, Havertown, Pa.) and permitted to proceed for 6 minutes after the addition of agonist. The results are reported as maximum percent change in light transmittance from baseline with platelet buffer used as a reference.
In FIG. 23, the results of CVX-induced (250 ng/mL) human platelet aggregation results before and 15 minutes after administration of the BTK inhibitors to 6 healthy individuals are shown.

NK cells = experiment: Antibody-dependent NK cell degranulation (CD107a flow cytometry); format: cell-based, human; conditions: DHL-4 target cells
Raji cells = experiment: Rituximab ADCC chromium release assay; format: cell-based, human; conditions: 1 μM
Text: Cell culture conditions were as follows. […] The HER18 cells were maintained in DEM supplemented with fetal bovine serum, penicillin-streptomycin and. Prior to assay, HER18 cells were harvested using trypsin-EDTA, washed with phosphate-buffered saline (PBS) containing 5% serum and viable cells were counted. For culture of primary target cells, peripheral blood from CLL patients was subject to density centrifugation to obtain peripheral blood mononuclear cells (PBMC). Cell preparations were washed and then subject to positive selection of CD5+CD19^+ CLL cells using magnetic beads (MACS, Miltenyi Biotech). Cell preparations were used fresh after selection. NK cells from CLL patients and healthy volunteers were enriched from peripheral blood collected in sodium citrate anti-coagulant tubes and then subject to density centrifugation. Removal of non NK cells was performed using negative selection by MACS separation. Freshly isolated NK cells were washed three times, enumerated, and then used immediately for ADCC assays.
ADCC assays were performed as follows. Briefly, target cells (Raji or primary CLL) were labeled by incubation at 37° C. with 100 μCi ^51Cr for 4 hours prior to co-culture with NK cells. Cells were washed, enumerated, and then added in triplicate to prepared 96-well plates containing treated NK cells at an effector:target (E:T) ratio of 25:1. […] The effect of NK cell natural cytotoxicity was assessed in wells containing no rituximab. Cultures were incubated at 37° C. for 4 hours, and then centrifuged. Supernatants were harvested and ^51Cr release was measured by liquid scintillation counting. All experiments were performed in triplicate.

CD4+ T cells = experiment: Th17 and Treg development from CD4+ T cells; format: cell-based
Experimental: Enriched CD4^+ T cells are plated on 24-well culture dishes that have been precoated 2 hr with 250 μL anti-TCRβ (0.5 μg/mL) plus anti-CD28 (5 μg/mL) at 37° C. in PBS. The cells are then supplemented with media containing BTK inhibitors along with the skewing cytokines as indicated in the following. The Th17 and Treg cultures are grown for 4 days before analysis. The cells are maintained for an additional 3 days with skewing cytokines (Th17; 20 ng/mL IL-6, 0.5 ng/mL TGF-β, 5 μg/mL IL-4, 5 μg/mL IFN-γ and Treg; 0.5 ng/mL TGF-β, 5 μg/mL IL-4, 5 μg/mL IFN-γ) and are supplemented with IL2 as a growth factor.

CD8+ T cells [3] = experiment: CD8+ T cell viability; format: cell-based; conditions: 4 days culture
Experimental: Total T cells were plated on anti-TCR and anti-CD28 coated wells in the presence of both BTK inhibitors. Neutral culture conditions were used that will not polarize T cells to a helper lineage. The cells are grown for 4 days and are then stained with anti-CD4, anti-CD8 and LIVE/DEAD reagent to determine if the drugs have selective effects on either the CD4^+ or CD8^+ cells. Statistical significance was calculated using the Mann Whitney T-test. […]

CD8+ T cells [4] = experiment: Cytotoxic T cell (CTL) assay; format: cell-based; conditions: 500 nM
Experimental: CD8^+ T cells have at least two primary effector functions: (1) produce large amounts of IFN-γ (which activates macrophages), and (2) cytolytic activity. […] The targets were B lymphoblasts from lipopolysaccharide (LPS) treated cultures. The assay was performed by incubating different ratios of effectors:targets for 4 hours.

CLL, MCL, NHL patients = conditions: monotherapy, dose levels through 840 mg; cited from earlier work
[5] = Phase 1 portion, relapsed/refractory CLL (n=13)

Compound | effect on thrombus formation [1] | EC50 (B cell receptor) [nM] | response rate (CLL; Phase 1, previously treated CLL, monotherapy) [%] | infusion related reactions, Grade 3 (CLL; [5]) [%] | patients with all grade AE (infusion related reactions) (CLL; [5]) [%] | IRR cases developing symptoms of hypotension (CLL; Phase 2 portion) [%] | hypotension cases that were Grade 3 reactions (CLL; Phase 2 portion) [%] | patients who developed IRR (CLL; Phase 2 portion) [%] | GPVI platelet aggregation ([2]; FIG. 22 and FIG. 23) | IC50 ([2]; Homo sapiens, Platelet, FIG. 22) [nM] | reduction of rituximab-stimulated NK cell degranulation (NK cells) [%] | rituximab ADCC, NK cell activity (Raji cells; FIG. 31) | antibody-dependent lysis of rituximab-coated Raji cells (Raji cells; healthy donor NK cells) | Th17 and Treg development (CD4+ T cells) | CD8+ T cell viability (CD8+ T cells [3]) | CD8+ T cell function as % cytotoxicity (CD8+ T cells [4]) | CD8+ T cell function as IFN-γ levels (CD8+ T cells [4]) | maximum tolerated dose (MTD) (CLL, MCL, NHL patients)
C=CC(=O)Nc1cccc(Nc2nc(Nc3ccc(OCCOC)cc3)ncc2F)c1 [CC-292, N-(3-((5-fluoro-2-((4-(2-methoxyethoxy)phenyl)amino)pyrimidin-4-yl)amino)phenyl)acrylamide] | interfere with thrombus formation | 121 |  |  |  |  |  |  |  |  |  |  |  |  |  |  |  | 
obinutuzumab: humanized monoclonal antibody directed against CD20, type II glycoengineered |  |  | 62 | 15 | 100 | 60 | 25 | 95 |  |  |  |  |  |  |  |  |  | 
C=CC(=O)N1CCC[C@@H](n2nc(-c3ccc(Oc4ccccc4)cc3)c3c(N)ncnc32)C1 [ibrutinib, 1-[(3R)-3-[4-amino-3-(4-phenoxyphenyl)-1H-pyrazolo[3,4-d]pyrimidin-1-yl]piperidin-1-yl]prop-2-en-1-one, reference compound] | interfere with thrombus formation | 6.1 |  |  |  |  |  |  | significantly inhibits GPVI platelet aggregation | 130 | ~50 | completely inhibited ADCC | strongly inhibited the antibody-dependent lysis of target cells | a profound inhibition of Th17 cells and an increase in Treg development | strong, negative effect | affects CD8^+ T cell function | significant loss of function | No maximum tolerated dose (MTD) was apparent
